According to ChEMBL document CHEMBL1909046, “DrugMatrix in vitro pharmacology data”:

Columns and labels:
[1] = biological target: T1, Alpha-1D adrenergic receptor (Homo sapiens, UniProt P25100); assay type: cell membranes, HEK293, Membrane; settings: hek293; also: in other assays of this panel Not Active means under 50% inhibition at 10 µM
T1 sequence (P25100 whole entry): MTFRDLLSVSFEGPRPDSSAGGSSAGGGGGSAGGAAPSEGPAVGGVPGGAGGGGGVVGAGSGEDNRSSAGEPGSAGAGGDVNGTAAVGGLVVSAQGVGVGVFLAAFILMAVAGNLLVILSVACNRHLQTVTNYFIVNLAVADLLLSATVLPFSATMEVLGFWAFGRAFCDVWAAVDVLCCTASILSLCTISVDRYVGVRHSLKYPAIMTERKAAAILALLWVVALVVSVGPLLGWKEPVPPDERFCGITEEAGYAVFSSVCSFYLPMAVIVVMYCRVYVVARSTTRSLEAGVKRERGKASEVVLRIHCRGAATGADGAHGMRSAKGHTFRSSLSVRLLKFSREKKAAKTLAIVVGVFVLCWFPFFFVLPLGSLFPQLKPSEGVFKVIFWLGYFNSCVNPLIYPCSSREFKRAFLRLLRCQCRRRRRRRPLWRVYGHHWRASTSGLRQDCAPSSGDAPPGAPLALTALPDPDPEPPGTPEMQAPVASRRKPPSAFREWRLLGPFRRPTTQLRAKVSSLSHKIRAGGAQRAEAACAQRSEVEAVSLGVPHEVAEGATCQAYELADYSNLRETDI

[2] = biological target: C-C chemokine receptor type 2 (Homo sapiens, UniProt P41597); assay type: cell membranes, CHO-K1, Membrane; settings: cho-k1; also: in other assays of this panel Not Active means under 50% inhibition at 10 µM
Chain of C-C chemokine receptor type 2 (P41597 whole entry): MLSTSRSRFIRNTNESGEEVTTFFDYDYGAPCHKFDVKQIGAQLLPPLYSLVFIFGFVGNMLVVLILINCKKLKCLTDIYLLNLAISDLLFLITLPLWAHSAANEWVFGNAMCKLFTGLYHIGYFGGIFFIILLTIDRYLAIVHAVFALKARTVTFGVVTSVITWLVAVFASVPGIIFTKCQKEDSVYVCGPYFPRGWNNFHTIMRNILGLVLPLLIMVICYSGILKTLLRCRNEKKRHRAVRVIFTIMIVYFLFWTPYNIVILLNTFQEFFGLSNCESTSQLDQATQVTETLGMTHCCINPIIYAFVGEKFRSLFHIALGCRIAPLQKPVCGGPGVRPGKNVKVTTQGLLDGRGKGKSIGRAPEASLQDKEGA

[3] = biological target: T2, C-X-C chemokine receptor type 1 (Homo sapiens, UniProt P25024); also: in other assays of this panel Not Active means under 50% inhibition at 10 µM
T2 sequence (P25024 whole entry): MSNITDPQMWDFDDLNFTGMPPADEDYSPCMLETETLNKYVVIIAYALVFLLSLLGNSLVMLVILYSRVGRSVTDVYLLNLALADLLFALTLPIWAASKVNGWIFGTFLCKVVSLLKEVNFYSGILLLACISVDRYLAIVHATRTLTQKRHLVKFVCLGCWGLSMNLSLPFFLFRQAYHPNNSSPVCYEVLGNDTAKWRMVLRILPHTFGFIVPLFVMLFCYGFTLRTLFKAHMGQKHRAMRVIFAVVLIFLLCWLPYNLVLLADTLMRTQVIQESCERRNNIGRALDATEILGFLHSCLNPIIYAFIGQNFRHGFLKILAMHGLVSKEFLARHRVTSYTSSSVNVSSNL

[4] = DRUGMATRIX: GABAA, Chloride Channel, TBOB radioligand binding (ligand: [3H] TBOB); assay type: cell membranes, Rattus norvegicus, Wistar, Cerebral cortex, Membrane; settings: Not Active = under 50% inhibition at 10 µM
[5] = DRUGMATRIX: Glutamate, Kainate radioligand binding (ligand: [3H] Kainic acid); assay type: cell membranes, Rattus norvegicus, Wistar, Brain, Membrane; settings: Not Active = under 50% inhibition at 10 µM
[6] = DRUGMATRIX: Glutamate, NMDA, Phencyclidine radioligand binding (ligand: [3H] TCP); assay type: cell membranes, Rattus norvegicus, Wistar, Cerebral cortex, Membrane; settings: Not Active = under 50% inhibition at 10 µM
Progesterone receptor = biological target: T3, Progesterone receptor (Bos taurus, UniProt Q690N0); test: DRUGMATRIX: Progesterone radioligand binding (ligand: [3H] R-5020); assay type: tissue-based, Uterus; settings: Not Active = under 50% inhibition at 10 µM
T3 sequence (Q690N0 whole entry): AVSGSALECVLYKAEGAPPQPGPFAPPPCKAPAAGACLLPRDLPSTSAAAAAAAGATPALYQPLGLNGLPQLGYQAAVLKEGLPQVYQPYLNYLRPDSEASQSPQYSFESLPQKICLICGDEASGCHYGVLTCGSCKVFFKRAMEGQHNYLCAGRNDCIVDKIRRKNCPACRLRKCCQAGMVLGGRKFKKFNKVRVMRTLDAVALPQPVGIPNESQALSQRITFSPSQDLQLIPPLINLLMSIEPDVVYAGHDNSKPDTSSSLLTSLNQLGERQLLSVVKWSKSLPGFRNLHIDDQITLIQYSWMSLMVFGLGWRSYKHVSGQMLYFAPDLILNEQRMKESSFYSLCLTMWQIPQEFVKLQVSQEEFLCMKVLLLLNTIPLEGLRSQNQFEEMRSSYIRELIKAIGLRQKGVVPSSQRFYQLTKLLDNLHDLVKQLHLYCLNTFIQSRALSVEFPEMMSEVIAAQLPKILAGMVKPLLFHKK

Nc1c(Br)cc(Br)cc1CN[C@H]1CC[C@H](O)CC1 [AMBROXOL]
Not Active: IC50 [1] | IC50 [2] | IC50 [3] | IC50 [4] | Ki [4] | IC50 [5] | Ki [5] | IC50 [6] | Ki [6] | IC50 (Progesterone receptor)

NCCCCCC(=O)O [AMINOCAPROIC ACID]
Not Active: IC50 [1] | IC50 [2] | IC50 [3] | IC50 [4] | Ki [4] | IC50 [5] | Ki [5] | IC50 [6] | Ki [6] | IC50 (Progesterone receptor)

CCC1(c2ccc(N)cc2)CCC(=O)NC1=O (centres undefined) [AMINOGLUTETHIMIDE]
Not Active: IC50 [1] | IC50 [2] | IC50 [3] | IC50 [4] | Ki [4] | IC50 [5] | Ki [5] | IC50 [6] | Ki [6] | IC50 (Progesterone receptor)

Cc1ccc(/N=C/N(C)/C=N/c2ccc(C)cc2C)c(C)c1 [AMITRAZ]
Not Active: IC50 [1] | IC50 [2] | IC50 [3] | IC50 [4] | Ki [4] | IC50 [5] | Ki [5] | IC50 [6] | Ki [6] | IC50 (Progesterone receptor)

CCOC(=O)C1=C(COCCN)NC(C)=C(C(=O)OC)C1c1ccccc1Cl (centres undefined) [AMLODIPINE]
Not Active: IC50 [1] | IC50 [2] | IC50 [3] | IC50 [4] | Ki [4] | IC50 [5] | Ki [5] | IC50 [6] | Ki [6] | IC50 (Progesterone receptor)

COc1ccc(C[C@H]2NC[C@H](O)[C@H]2OC(C)=O)cc1 [ANISOMYCIN]
Not Active: IC50 [1] | Ki [1] | IC50 [2] | Ki [2] | IC50 [3] | Ki [3] | IC50 [4] | Ki [4] | IC50 [5] | Ki [5] | IC50 [6] | Ki [6] | IC50 (Progesterone receptor) | Ki (Progesterone receptor)

Nc1ncn([C@@H]2O[C@H](CO)[C@@H](O)[C@H]2O)c(=O)n1 [AZACITIDINE]
Not Active: IC50 [1] | IC50 [2] | IC50 [3] | IC50 [4] | Ki [4] | IC50 [5] | Ki [5] | IC50 [6] | Ki [6] | IC50 (Progesterone receptor)

CN(C)C(=O)Oc1cc(OC(=O)N(C)C)cc(C(O)CNC(C)(C)C)c1 (centres undefined) [BAMBUTEROL]
Not Active: IC50 [1] | IC50 [2] | IC50 [3] | IC50 [4] | Ki [4] | IC50 [5] | Ki [5] | IC50 [6] | Ki [6] | IC50 (Progesterone receptor)
